In US5795882A, “Method of treating prostatic diseases using delayed and/or sustained release vitamin D formulations” (Bone Care International, Inc., priority 1996, dated 1998):

Columns and labels:
[1] = In vitro thermal conversion of 1α-hydroxyprevitamin D to 1α-hydroxyvitamin D; type: physicochemical; conditions: in ethanol, 37° C.
Method: A series of experiments were conducted which address the in vitro conversion of previtamin to vitamin for three 1α-hydroxyprevitamin D's: 1α-hydroxyprevitamin D2, 1α,24-dihydroxyprevitamin D2 and 1α-hydroxyprevitamin D3. Each 1α-hydroxyprevitamin D was dissolved in ethanol, incubated at 37° C. in a water bath, and samples taken at two-hour intervals. An analytical HPLC separation was performed on each sample to quantify the thermal conversion of the previtamin to the vitamin form. The data collected were normalized to account for the presence of any vitamin form in the initial formulation (≤10%). The results are presented in FIG. 1 which is a plot of % previtamin versus time in hours. Linear regression lines were generated for each previtamin.

[2] = test system: luteinizing hormone (LH); conditions: cited from earlier work

| half-life [1] | Compound | cardiovascular profile ([2]; in vivo) | inhibition of the release of luteinizing hormone from the pituitary gland ([2]; in vivo) | dose achieving maximum suppression of plasma testosterone ([2]; men) |
| --- | --- | --- | --- | --- |
| 12.9 h | CC1=C(/C=C\C2=CCC[C@]3(C)[C@@H]([C@H](C)/C=C/[C@H](C)C(C)C)CC[C@@H]23)C[C@@H](O)C[C@@H]1O [1α-(OH)preD2, 1α-hydroxyprevitamin D2] |  |  |  |
|  | CC/C(=C(/CC)c1ccc(O)cc1)c1ccc(O)cc1 [diethylstilbestrol] | poor cardiovascular profile | potent inhibitors of the release from the pituitary gland of luteinizing hormone | 3 mg/day |
